Assay results published in ChEMBL document CHEMBL5705899 (Biochem J, 2014).
Calls of active or inactive are those of the source. No cut-off for these calls is given here.

Tests used:
[1] = target: Ribosomal protein S6 kinase alpha-2 (Homo sapiens) (UniProt Q15349); assay: Inhibition of human RPS6KA2 at 1 uM using bio-4xCHKT as substrate in presence of 33P-ATP by ProQinase assay
[2] = target: Hepatocyte growth factor receptor (Homo sapiens) (UniProt P08581); assay: Inhibition of human MET at 1 uM using poly(Ala,Glu,Lys,Tyr) as substrate in presence of 33P-ATP by ProQinase assay
[3] = target: Aurora kinase A (Homo sapiens) (UniProt O14965); assay: Inhibition of recombinant human N-terminal Hi6-tagged Aurora A (2 to 403 residues) expressed in Escherichia coli assessed as remaining activity at 1 uM using LRRLSLGLRRLSLGLRRLSLGLRRLSLG as substrate incubated for 30 mins in presence of [gamma-33P]ATP by filter binding method relative to control
[4] = target: Mitogen-activated protein kinase 13 (Homo sapiens) (UniProt O15264); assay: Inhibition of recombinant human GST-tagged P38delta (1 to 365 residues) expressed in Escherichia coli assessed as remaining activity at 1 uM using MBP as substrate incubated for 30 mins in presence of [gamma-33P]ATP by filter binding method relative to control
[5] = target: Fibroblast growth factor receptor 2 (Homo sapiens) (UniProt P21802); assay: Inhibition of human FGFR2 at 1 uM using polyEY as substrate in presence of 33P-ATP by ProQinase assay
[6] = target: Testis-specific serine/threonine-protein kinase 1 (Homo sapiens) (UniProt Q9BXA7); assay: Inhibition of recombinant human N-terminal GST-tagged TSSK1 (1 to 367 residues) expressed in Escherichia coli assessed as remaining activity at 1 uM using KKKVSRSGLYRSPSMPENLNRPR as substrate incubated for 30 mins in presence of [gamma-33P]ATP by filter binding method relative to control
[7] = target: Tyrosine-protein kinase BTK (Homo sapiens) (UniProt Q06187); assay: Inhibition of recombinant human N-terminal His6-tagged BTK (2 to 659 residues) expressed in baculovirus infected Sf21 cells assessed as remaining activity at 1 uM using KVEKIGEGTYGVVYK as substrate incubated for 30 mins in presence of [gamma-33P]ATP by filter binding method relative to control
[8] = target: Serine/threonine-protein kinase PINK1, mitochondrial (Homo sapiens) (UniProt Q9BXM7); assay: Inhibition of recombinant human N-terminal MBP-tagged PINK1 (1 to 570 residues) expressed in Escherichia coli assessed as remaining activity at 1 uM using KKSRGDYMTMQIG as substrate incubated for 30 mins in presence of [gamma-33P]ATP by filter binding method relative to control
[9] = target: Vascular endothelial growth factor receptor 1 (Homo sapiens) (UniProt P17948); assay: Inhibition of human VEGFR1 at 1 uM using polyEY as substrate in presence of 33P-ATP by ProQinase assay
[10] = target: Serine/threonine-protein kinase tousled-like 1 (Homo sapiens) (UniProt Q9UKI8); assay: Inhibition of recombinant human N-terminal GST-tagged TLK1 (1 to 766 residues) expressed in Escherichia coli assessed as remaining activity at 1 uM using MBP as substrate incubated for 30 mins in presence of [gamma-33P]ATP by filter binding method relative to control
[11] = target: Choline kinase alpha (Homo sapiens) (UniProt P35790); assay: Inhibition of recombinant human N-terminal GST-tagged CHKalpha (1 to 457 residues) expressed in Escherichia coli at 1 uM using choline chloride as substrate incubated for 40 mins by ADP-Glo assay
Choline kinase alpha (Homo sapiens), sequence (P35790 whole entry, looked up, the tested form may be a part): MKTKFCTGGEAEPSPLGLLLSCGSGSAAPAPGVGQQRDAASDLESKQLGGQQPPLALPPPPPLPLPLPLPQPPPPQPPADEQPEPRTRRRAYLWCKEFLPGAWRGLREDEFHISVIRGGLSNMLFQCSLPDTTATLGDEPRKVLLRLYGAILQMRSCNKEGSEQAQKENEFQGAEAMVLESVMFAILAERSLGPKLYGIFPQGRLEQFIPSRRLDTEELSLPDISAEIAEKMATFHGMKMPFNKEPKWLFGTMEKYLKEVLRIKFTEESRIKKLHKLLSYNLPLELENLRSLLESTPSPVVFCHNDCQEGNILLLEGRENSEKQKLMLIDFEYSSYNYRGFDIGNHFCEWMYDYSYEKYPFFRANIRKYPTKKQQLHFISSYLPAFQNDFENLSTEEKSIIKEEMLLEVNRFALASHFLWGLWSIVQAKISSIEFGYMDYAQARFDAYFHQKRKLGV

[12] = target: Tyrosine-protein kinase Blk (Homo sapiens) (UniProt P51451); assay: Inhibition of human BLK at 1 uM using polyEY as substrate in presence of 33P-ATP by ProQinase assay
[13] = target: Tyrosine-protein kinase ZAP-70 (Homo sapiens) (UniProt P43403); assay: Inhibition of recombinant human N-terminal His6-tagged ZAP70 (1 to 619 residues) expressed in baculovirus infected Sf21 cells assessed as remaining activity at 1 uM using Poly(Glu,Tyr) as substrate incubated for 30 mins in presence of [gamma-33P]ATP by filter binding method relative to control
Tyrosine-protein kinase ZAP-70 (Homo sapiens), sequence (P43403 whole entry, the tested form may be a part): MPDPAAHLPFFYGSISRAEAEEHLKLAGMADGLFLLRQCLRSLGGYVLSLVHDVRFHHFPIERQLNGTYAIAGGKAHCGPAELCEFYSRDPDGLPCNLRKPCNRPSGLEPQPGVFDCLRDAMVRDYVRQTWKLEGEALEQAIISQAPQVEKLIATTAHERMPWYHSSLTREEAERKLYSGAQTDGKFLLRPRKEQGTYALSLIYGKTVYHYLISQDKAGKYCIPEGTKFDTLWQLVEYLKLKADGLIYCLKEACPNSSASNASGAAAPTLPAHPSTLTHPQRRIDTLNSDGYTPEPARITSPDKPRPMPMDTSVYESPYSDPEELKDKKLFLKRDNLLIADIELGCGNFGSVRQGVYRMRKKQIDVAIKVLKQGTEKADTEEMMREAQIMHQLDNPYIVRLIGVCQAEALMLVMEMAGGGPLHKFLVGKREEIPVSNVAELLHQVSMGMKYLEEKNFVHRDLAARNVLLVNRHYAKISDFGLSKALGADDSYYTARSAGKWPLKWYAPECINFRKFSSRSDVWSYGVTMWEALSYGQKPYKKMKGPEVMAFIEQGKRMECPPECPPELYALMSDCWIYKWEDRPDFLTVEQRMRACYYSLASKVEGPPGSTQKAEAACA

[14] = target: Dual specificity tyrosine-phosphorylation-regulated kinase 1A (Homo sapiens) (UniProt Q13627); assay: Inhibition of recombinant human N-terminal GST-tagged DYRK1A (1 to 502 residues) expressed in Escherichia coli assessed as remaining activity at 1 uM using KKISGRLSPIMTEQ as substrate incubated for 30 mins in presence of [gamma-33P]ATP by filter binding method relative to control
[15] = target: Ephrin type-B receptor 4 (Homo sapiens) (UniProt P54760); assay: Inhibition of human EPHB4 at 1 uM using polyEY as substrate in presence of 33P-ATP by ProQinase assay
Ephrin type-B receptor 4 (Homo sapiens), sequence (P54760 whole entry): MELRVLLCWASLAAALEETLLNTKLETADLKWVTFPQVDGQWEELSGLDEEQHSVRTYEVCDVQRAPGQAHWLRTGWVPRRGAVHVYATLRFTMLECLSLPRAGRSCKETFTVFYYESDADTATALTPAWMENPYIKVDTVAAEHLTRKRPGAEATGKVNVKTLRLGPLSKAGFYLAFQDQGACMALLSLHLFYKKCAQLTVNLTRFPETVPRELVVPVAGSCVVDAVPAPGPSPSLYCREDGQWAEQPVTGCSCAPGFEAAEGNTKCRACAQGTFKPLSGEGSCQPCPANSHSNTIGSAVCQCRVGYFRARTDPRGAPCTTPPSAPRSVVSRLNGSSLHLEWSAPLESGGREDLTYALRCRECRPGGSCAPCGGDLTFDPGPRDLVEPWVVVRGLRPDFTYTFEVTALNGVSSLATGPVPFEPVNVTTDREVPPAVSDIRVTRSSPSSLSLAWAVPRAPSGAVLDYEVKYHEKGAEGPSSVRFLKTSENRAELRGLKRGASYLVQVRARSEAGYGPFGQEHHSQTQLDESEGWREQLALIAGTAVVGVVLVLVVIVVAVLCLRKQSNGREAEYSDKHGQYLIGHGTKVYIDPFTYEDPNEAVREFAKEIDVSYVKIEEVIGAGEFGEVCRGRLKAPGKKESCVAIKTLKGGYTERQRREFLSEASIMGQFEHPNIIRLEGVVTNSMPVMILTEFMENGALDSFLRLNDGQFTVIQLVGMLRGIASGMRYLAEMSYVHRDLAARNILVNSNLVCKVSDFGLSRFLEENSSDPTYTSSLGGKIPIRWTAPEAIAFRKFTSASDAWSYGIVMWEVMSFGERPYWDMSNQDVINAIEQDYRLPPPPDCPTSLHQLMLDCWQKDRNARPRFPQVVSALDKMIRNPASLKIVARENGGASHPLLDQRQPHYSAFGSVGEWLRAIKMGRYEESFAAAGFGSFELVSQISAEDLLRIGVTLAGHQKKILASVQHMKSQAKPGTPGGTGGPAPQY

[16] = target: CDK9/cyclin T1 (Homo sapiens) (UniProt O60563+P50750); assay: Inhibition of human CDK9/CyclinT1 at 1 uM using RBER-CHKtide as substrate in presence of 33P-ATP by ProQinase assay; format: protein-complex assay
[17] = target: Discoidin domain-containing receptor 2 (Homo sapiens) (UniProt Q16832); assay: Inhibition of human DDR2 at 1 uM using poly(Ala,Glu,Lys,Tyr) as substrate in presence of 33P-ATP by ProQinase assay
Discoidin domain-containing receptor 2 (Homo sapiens), sequence (Q16832 whole entry, the tested form may be a part): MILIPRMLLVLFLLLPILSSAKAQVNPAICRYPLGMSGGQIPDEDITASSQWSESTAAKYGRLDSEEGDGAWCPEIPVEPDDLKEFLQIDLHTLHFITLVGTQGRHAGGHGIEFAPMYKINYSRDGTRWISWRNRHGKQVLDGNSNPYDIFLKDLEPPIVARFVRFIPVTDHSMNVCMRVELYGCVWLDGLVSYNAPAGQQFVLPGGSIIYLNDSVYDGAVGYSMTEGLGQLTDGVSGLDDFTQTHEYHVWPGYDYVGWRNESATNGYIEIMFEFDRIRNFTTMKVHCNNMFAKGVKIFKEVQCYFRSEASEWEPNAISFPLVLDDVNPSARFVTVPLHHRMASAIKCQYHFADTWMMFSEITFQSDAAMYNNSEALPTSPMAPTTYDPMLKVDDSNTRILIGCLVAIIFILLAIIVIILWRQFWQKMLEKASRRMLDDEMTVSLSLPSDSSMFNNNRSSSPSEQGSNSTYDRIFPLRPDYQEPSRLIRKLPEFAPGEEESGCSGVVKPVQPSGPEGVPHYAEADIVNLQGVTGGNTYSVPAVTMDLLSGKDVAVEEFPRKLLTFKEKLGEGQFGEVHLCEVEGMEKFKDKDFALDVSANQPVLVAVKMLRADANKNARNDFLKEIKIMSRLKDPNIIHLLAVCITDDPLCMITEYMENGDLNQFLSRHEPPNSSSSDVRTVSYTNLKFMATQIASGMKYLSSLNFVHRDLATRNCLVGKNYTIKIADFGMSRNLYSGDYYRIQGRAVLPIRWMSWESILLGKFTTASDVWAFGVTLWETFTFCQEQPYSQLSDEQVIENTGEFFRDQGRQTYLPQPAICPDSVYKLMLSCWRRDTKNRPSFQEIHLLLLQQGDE

[18] = target: Serine/threonine-protein kinase TBK1 (Homo sapiens) (UniProt Q9UHD2); assay: Inhibition of human TBK1 at 1 uM using casein as substrate in presence of 33P-ATP by ProQinase assay
[19] = target: Mitogen-activated protein kinase kinase kinase kinase 3 (Homo sapiens) (UniProt Q8IVH8); assay: Inhibition of recombinant human MAP4K3 (1 to 873 residues) expressed in baculovirus infected Sf21 cells assessed as remaining activity at 1 uM using MBP as substrate incubated for 30 mins in presence of [gamma-33P]ATP by filter binding method relative to control
[20] = target: Mitogen-activated protein kinase 12 (Homo sapiens) (UniProt P53778); assay: Inhibition of human P38gamma at 1 uM using RBER-IRStide as substrate in presence of 33P-ATP by ProQinase assay
Mitogen-activated protein kinase 12 (Homo sapiens), sequence (P53778 whole entry): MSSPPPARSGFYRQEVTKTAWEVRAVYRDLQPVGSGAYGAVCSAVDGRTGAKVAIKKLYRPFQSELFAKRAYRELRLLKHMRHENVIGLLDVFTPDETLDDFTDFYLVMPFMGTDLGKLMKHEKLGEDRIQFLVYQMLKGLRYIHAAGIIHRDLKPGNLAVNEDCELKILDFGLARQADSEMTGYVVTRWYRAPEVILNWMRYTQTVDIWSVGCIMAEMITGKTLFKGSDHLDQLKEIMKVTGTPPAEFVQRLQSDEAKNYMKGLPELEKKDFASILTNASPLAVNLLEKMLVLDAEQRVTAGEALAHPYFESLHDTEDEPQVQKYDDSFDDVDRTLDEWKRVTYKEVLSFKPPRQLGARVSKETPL

[21] = target: Diacylglycerol kinase beta (Homo sapiens) (UniProt Q9Y6T7); assay: Inhibition of DGKbeta (unknown origin) at 1 uM
[22] = target: Aurora kinase C (Homo sapiens) (UniProt Q9UQB9); assay: Inhibition of human AuroraC at 1 uM using bio-4xCHKT as substrate in presence of 33P-ATP by ProQinase assay
Aurora kinase C (Homo sapiens), sequence (Q9UQB9 whole entry): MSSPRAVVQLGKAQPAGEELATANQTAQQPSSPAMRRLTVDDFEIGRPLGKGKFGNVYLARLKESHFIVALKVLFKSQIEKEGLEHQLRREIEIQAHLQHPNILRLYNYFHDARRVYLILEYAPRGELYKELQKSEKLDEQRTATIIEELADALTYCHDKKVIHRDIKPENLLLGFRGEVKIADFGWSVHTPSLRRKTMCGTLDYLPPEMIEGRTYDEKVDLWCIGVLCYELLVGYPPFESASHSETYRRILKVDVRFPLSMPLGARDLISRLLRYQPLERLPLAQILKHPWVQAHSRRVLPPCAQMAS

[23] = target: Receptor-type tyrosine-protein kinase FLT3 (Homo sapiens) (UniProt P36888); assay: Inhibition of human FLT3 at 1 uM using Poly(Ala,Glu,Lys,Tyr) as substrate in presence of 33P-ATP by ProQinase assay
[24] = target: Dual specificity mitogen-activated protein kinase kinase 2 (Homo sapiens) (UniProt P36507); assay: Inhibition of recombinant human N-terminal GST/C-terminal His6-tagged MKK2 (2 to 400 residues) expressed in Escherichia coli assessed as remaining activity at 1 uM using MBP as substrate incubated for 30 mins in presence of [gamma-33P]ATP by filter binding method relative to control
Dual specificity mitogen-activated protein kinase kinase 2 (Homo sapiens), sequence (P36507 whole entry, the tested form may be a part): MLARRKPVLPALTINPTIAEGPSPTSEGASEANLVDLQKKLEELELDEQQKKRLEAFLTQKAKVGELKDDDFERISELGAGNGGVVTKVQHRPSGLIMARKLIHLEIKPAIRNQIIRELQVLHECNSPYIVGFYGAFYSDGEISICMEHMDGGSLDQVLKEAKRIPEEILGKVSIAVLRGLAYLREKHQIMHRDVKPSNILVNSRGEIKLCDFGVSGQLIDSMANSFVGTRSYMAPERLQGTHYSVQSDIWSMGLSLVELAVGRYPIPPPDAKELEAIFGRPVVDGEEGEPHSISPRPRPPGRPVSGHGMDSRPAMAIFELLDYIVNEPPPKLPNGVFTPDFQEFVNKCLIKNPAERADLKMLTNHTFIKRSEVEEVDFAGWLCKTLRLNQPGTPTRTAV

Ribosomal protein S6 kinase alpha-2 (Homo sapiens), sequence (Q15349 whole entry): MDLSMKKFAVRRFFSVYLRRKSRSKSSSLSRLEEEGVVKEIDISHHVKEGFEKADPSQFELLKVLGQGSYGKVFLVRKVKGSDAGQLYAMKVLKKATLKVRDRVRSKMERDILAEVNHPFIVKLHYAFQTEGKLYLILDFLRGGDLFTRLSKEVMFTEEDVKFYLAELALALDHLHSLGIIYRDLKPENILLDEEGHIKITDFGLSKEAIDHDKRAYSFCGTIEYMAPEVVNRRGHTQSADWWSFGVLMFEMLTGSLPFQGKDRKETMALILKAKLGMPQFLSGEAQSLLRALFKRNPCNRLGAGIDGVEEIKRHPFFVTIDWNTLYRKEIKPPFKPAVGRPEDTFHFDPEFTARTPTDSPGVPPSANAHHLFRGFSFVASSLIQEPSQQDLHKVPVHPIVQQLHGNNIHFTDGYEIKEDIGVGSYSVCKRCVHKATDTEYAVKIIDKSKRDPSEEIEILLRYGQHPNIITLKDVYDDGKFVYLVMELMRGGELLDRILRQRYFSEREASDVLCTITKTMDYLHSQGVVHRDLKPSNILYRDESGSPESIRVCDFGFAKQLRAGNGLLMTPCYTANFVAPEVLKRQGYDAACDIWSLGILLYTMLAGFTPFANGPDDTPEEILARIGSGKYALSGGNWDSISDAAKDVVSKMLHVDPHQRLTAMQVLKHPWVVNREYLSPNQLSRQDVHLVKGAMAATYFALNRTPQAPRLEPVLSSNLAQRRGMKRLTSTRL

CC(C)(O)CNc1ncc(-c2ccnc(Nc3ccnc(Cl)c3)n2)c(CC2CC2)n1
inhibition [1]: inactive | inhibition [2]: inactive | Activity [3]: 110% | Activity [4]: 111% | inhibition [5]: inactive | Activity [6]: 118% | Activity [7]: 108% | Activity [8]: 109% | inhibition [9]: inactive | Activity [10]: 100% | inhibition [11]: inactive | inhibition [12]: inactive | Activity [13]: 110% | Activity [14]: 105% | inhibition [15]: inactive | inhibition [16]: inactive | inhibition [17]: inactive | inhibition [18]: inactive | Activity [19]: 117% | inhibition [20]: inactive | inhibition [21]: inactive | inhibition [22]: inactive | inhibition [23]: inactive | Activity [24]: 111%
